In US20260007133A1, “HERBICIDAL COMPOSITION COMPRISING AZINE COMPOUNDS” (BASF SE, priority 2022, published 2026):
Read-outs that look alike come from different tables or passages of the source.

Legend:
Assay type in all cases: in vivo
Alopecurus myosuroides = test: Greenhouse pre-emergence (PRE) herbicidal test on ALOMY; conditions: Alopecurus myosuroides, pre-emergence, 480 h, PRE, ALOMY, 20 DAT
Outline: (§1)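 Each species is sown separately into loamy sand containing roughly 3.0% humus and treated before emergence. Pots are watered and covered until roots establish, then held at 10-25° C or 20-35° C. Injury is rated on a 0 to 100 scale 20 days post-treatment.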

Lolium multiflorum = test: Greenhouse pre-emergence (PRE) herbicidal test on LOLMU; conditions: Lolium multiflorum, pre-emergence; for inhibition at 8 g/ha: use rate 8 gai/ha
Outline: as §1

Setaria viridis = test: Greenhouse pre-emergence (PRE) herbicidal test on SETVI; conditions: Setaria viridis, pre-emergence; for inhibition at 2 g/ha: use rate 2 gai/ha
Outline: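 PRE spray directly after sowing, fine nozzles; actives suspended/emulsified in water, components formulated as 5% w/w EC in spray liquor. Substrate loamy sand ~3.0% humus. Hooded until rooting; 10-25° C. / 20-35° C. per species. Score 0–100, 20 DAT.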

Geranium pusillum = test: Greenhouse post-emergence (POST) herbicidal test on GERPU; conditions: Geranium pusillum, post-emergence, 480 h, POST, GERPU, 20 DAT
Outline: (§2)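 For this test, compounds formulated as a 5% by weight emulsion concentrate were diluted into spray liquor and applied post-emergence. Species were kept at 10-25° C or 20-35° C and injury was scored at 20 DAT on a 0–100 scale.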

Ipomoea hederacea = test: Greenhouse post-emergence (POST) herbicidal test on IPOHE; conditions: Ipomoea hederacea, post-emergence
Outline: as §2

[1] = use rate 2 gai/ha, read-out: solo application % activity
[2] = use rate 8 gai/ha, read-out: solo application % activity

SMILES: COc1c(Cl)c(F)c(F)c(F)c1Nc1nc(N)nc(C(C)(C)F)n1 [Compound I-4, N4-(5-Chloro-2,3,4-trifluoro-6-methoxy-phenyl)-6-(1-fluoro-1-methyl-ethyl)-1,3,5-triazine-2,4-diamine]
- pest or weed control at 2 g/ha (Alopecurus myosuroides; I-4 solo 2 gai/ha, read-out: % activity): 50%
- inhibition at 2 g/ha (Alopecurus myosuroides; [1]): 5%
- inhibition at 8 g/ha (Alopecurus myosuroides; [2]): 25%
- pest or weed control at 2 g/ha (Lolium multiflorum; 480 h, PRE, LOLMU, I-4 solo 2 gai/ha, 20 DAT, read-out: % activity): 10%
- pest or weed control at 8 g/ha (Lolium multiflorum; 480 h, PRE, LOLMU, I-4 solo 8 gai/ha, 20 DAT): 65%
- inhibition at 2 g/ha (Lolium multiflorum; 480 h, PRE, LOLMU, use rate 2 gai/ha, 20 DAT, read-out: solo application % activity): 5%
- inhibition at 8 g/ha (Lolium multiflorum; 480 h, PRE, LOLMU, 20 DAT, read-out: solo application % activity): 60%
- inhibition at 8 g/ha (Lolium multiflorum; LOLMU PRE, read-out: % activity): 35%
- pest or weed control at 8 g/ha (Setaria viridis; 480 h, PRE, SETVI, I-4 solo 8 gai/ha, 20 DAT): 80%
- inhibition at 2 g/ha (Setaria viridis; 480 h, PRE, SETVI, 20 DAT, read-out: solo application % activity): 5%
- inhibition at 8 g/ha (Setaria viridis; 480 h, PRE, SETVI, use rate 8 gai/ha, 20 DAT, read-out: solo application % activity): 75%
- inhibition at 2 g/ha (Setaria viridis; SETVI PRE, read-out: % activity): 50%
- pest or weed control at 2 g/ha (Geranium pusillum; I-4 solo 2 gai/ha): 10%
- pest or weed control at 8 g/ha (Geranium pusillum; I-4 solo 8 gai/ha): 30%
- inhibition at 2 g/ha (Geranium pusillum; [1]): 5%
- inhibition at 8 g/ha (Geranium pusillum; [2]): 25%
- inhibition at 8 g/ha (Ipomoea hederacea; 480 h, POST, IPOHE, use rate 8 gai/ha, 20 DAT, read-out: solo application % activity): 80%
- inhibition at 2 g/ha (Ipomoea hederacea; IPOHE POST, use rate 2 gai/ha, read-out: % activity): 40%
